The results in this text go back to patent publication EP0486280A2, “Piperidinylcamphorsulfonyl oxytocin antagonists” (MERCK & CO. INC., priority 1990, dated 1992).

One may read the pKd as the negative decadic logarithm of the Kd, by convention in mol/L. A high value points to a small Kd.

pKd: −log10 of the molar value.

For this test, the target named is T1, uterine OT receptors (Rattus norvegicus, UniProt P70536).
T1 construct: from tissue; host or cells: uterus of DES-treated rats, crude membranes
T1 sequence (P70536 1-388): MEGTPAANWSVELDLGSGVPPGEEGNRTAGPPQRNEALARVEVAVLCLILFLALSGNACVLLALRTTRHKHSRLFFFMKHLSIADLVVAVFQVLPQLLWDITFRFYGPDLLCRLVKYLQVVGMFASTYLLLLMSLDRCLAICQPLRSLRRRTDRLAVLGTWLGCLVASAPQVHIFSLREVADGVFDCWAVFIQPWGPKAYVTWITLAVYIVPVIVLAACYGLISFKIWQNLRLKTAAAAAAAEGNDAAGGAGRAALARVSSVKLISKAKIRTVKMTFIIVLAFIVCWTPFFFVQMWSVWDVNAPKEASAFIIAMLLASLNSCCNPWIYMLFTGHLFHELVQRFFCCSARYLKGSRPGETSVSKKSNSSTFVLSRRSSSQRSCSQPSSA
The experiment in a line: saturation binding of [^3H]OT, crude membrane preparation of uteri. On the set-up: species or system rats. The following applies: radioligand Kd from saturation binding assay; uterus. On the procedure: The high affinity binding of [^3H] Oxytocin(OT)([tyrosyl, 3,5-[^3H]OT; 30-60 Ci/mmol; New England Nuclear. Boston, MA) to uterine OT receptors was based on an assay^* using a crude membrane preparation of uteri taken from diethylstilbestrol dipropionate (DES)-treated (0.3 mg/kg, ip; 18-24) rats. Competition studies were conducted at equilibrium (60 minutes; 22°C) using 1 nM[^3H]OT in the following assay buffer: 50 mM Tris-HCI, 5 mM MgCl2, and 0.1% BSA, pH 7.4. Nonspecific binding (10% of the total binding) was determined using 1 mM unlabeled OT and the binding reaction was terminated by filtration through glass fiber filters using a cell harvester (model 7019, Skatron, Inc., Sterling, VA).
1985 J. Clin. Endocrinol. Metab. 60:37.

The compound `CC[C@H](C)[C@@H]1NC(=O)[C@H](Cc2ccc(O)cc2)NC(=O)[C@@H](N)CSSC[C@@H](C(=O)N2CCC[C@H]2C(=O)N[C@@H](CC(C)C)C(=O)NCC(N)=O)NC(=O)[C@H](CC(N)=O)NC(=O)[C@H](CCC(N)=O)NC1=O` [[^3H]OT] gave a pKd of 9.15.
